From PubChem BioAssay AID1259407 (Chemical Carcinogenesis Research Information System (CCRIS), 2018)
The source made the active and inactive calls. No rule for the calls is given here.

Tested on: CCRIS mutagenicity, Ames/micronucleus/aberration tests
Test: CCRIS mutagenicity studies
[1] = Test System: AMES SALMONELLA TYPHIMURIUM, Strain/Indicator: TA100, Metabolic Activation: NONE, Method: STANDARD PLATE
[2] = Test System: AMES SALMONELLA TYPHIMURIUM, Strain/Indicator: TA98, Metabolic Activation: NONE, Method: STANDARD PLATE

`Fc1ccc(CN2C3c4ccccc4-c4ccccc4C32)cc1` (stereo not given) was tested, and the mutagenic call [1] was “active; positive”.

With `CCN(CC)c1ccc(N=Nc2ccccc2)cc1` the mutagenic call (Test System: AMES SALMONELLA TYPHIMURIUM, Strain/Indicator: TA98, Metabolic Activation: RAT, LIVER, MICROSOMES, 4-DIETHYLAMINOAZOBENZENE, Method: PREINCUBATION) was “inactive; negative”, the mutagenic call (Test System: AMES SALMONELLA TYPHIMURIUM, Strain/Indicator: TA98, Metabolic Activation: RAT, LIVER, MICROSOMES, AROCLOR 1254, Method: PREINCUBATION) was “inactive; negative” and the mutagenic call (Test System: AMES SALMONELLA TYPHIMURIUM, Strain/Indicator: TA98, Metabolic Activation: RAT, LIVER, MICROSOMES, Method: PREINCUBATION) was “inactive; negative”.

With `Nc1ccc2cccc3c2c1-c1ccccc1-3` the mutagenic call (Test System: AMES SALMONELLA TYPHIMURIUM, Strain/Indicator: TA98, Metabolic Activation: RAT, LIVER, S-9, AROCLOR 1254 (2 OR 4%), Method: STANDARD PLATE) was “active; positive”, the mutagenic call (Test System: AMES SALMONELLA TYPHIMURIUM, Strain/Indicator: TA100, Metabolic Activation: RAT, LIVER, S-9, AROCLOR 1254 (4%), Method: STANDARD PLATE) was “active; positive” and the mutagenic call (Test System: AMES SALMONELLA TYPHIMURIUM, Strain/Indicator: TA1535, Metabolic Activation: RAT, LIVER, S-9, AROCLOR 1254 (4%), Method: STANDARD PLATE) was “inactive; negative”. The mutagenic call (Test System: AMES SALMONELLA TYPHIMURIUM, Strain/Indicator: TA1537, Metabolic Activation: RAT, LIVER, S-9, AROCLOR 1254 (4%), Method: STANDARD PLATE) was “active; positive”.

`O=[N+]([O-])c1c2c(cc3ccccc13)[C@@H](O)[C@H](O)C=C2` was tested, and the mutagenic call [2] was “active; positive”, the mutagenic call (Test System: AMES SALMONELLA TYPHIMURIUM, Strain/Indicator: TA98, Metabolic Activation: RAT, LIVER, S-9, Method: STANDARD PLATE) was “active; positive” and the mutagenic call [1] was “inactive; negative”. The mutagenic call (Test System: AMES SALMONELLA TYPHIMURIUM, Strain/Indicator: TA100, Metabolic Activation: RAT, LIVER, S-9, Method: STANDARD PLATE) was “inactive; negative”.

With `Nc1ccc2ccccc2c1N=Nc1ccc([N+](=O)[O-])cc1` the mutagenic call (Test System: AMES SALMONELLA TYPHIMURIUM, Strain/Indicator: TA97, Metabolic Activation: HAMSTER, LIVER, S-9, AROCLOR 1254 (10%), Method: PREINCUBATION) was “active; positive”, the mutagenic call (Test System: AMES SALMONELLA TYPHIMURIUM, Strain/Indicator: TA97, Metabolic Activation: NONE, Method: PREINCUBATION) was “active; positive” and the mutagenic call (Test System: AMES SALMONELLA TYPHIMURIUM, Strain/Indicator: TA97, Metabolic Activation: RAT, LIVER, S-9, AROCLOR 1254 (10%), Method: PREINCUBATION) was “active; positive”. For the same molecule, the mutagenic call (Test System: AMES SALMONELLA TYPHIMURIUM, Strain/Indicator: TA98, Metabolic Activation: HAMSTER, LIVER, S-9, AROCLOR 1254 (10%), Method: PREINCUBATION) was “active; positive”, the mutagenic call (Test System: AMES SALMONELLA TYPHIMURIUM, Strain/Indicator: TA98, Metabolic Activation: NONE, Method: PREINCUBATION) was “active; positive” and the mutagenic call (Test System: AMES SALMONELLA TYPHIMURIUM, Strain/Indicator: TA98, Metabolic Activation: RAT, LIVER, S-9, AROCLOR 1254 (10%), Method: PREINCUBATION) was “active; positive”. For the same molecule, the mutagenic call (Test System: AMES SALMONELLA TYPHIMURIUM, Strain/Indicator: TA100, Metabolic Activation: HAMSTER, LIVER, S-9, AROCLOR 1254 (10%), Method: PREINCUBATION) was “active; positive”, the mutagenic call (Test System: AMES SALMONELLA TYPHIMURIUM, Strain/Indicator: TA100, Metabolic Activation: NONE, Method: PREINCUBATION) was “inactive; negative” and the mutagenic call (Test System: AMES SALMONELLA TYPHIMURIUM, Strain/Indicator: TA100, Metabolic Activation: RAT, LIVER, S-9, AROCLOR 1254 (10%), Method: PREINCUBATION) was “active; positive”. The mutagenic call (Test System: AMES SALMONELLA TYPHIMURIUM, Strain/Indicator: TA1535, Metabolic Activation: HAMSTER, LIVER, S-9, AROCLOR 1254 (10%), Method: PREINCUBATION) was “inactive; negative”, the mutagenic call (Test System: AMES SALMONELLA TYPHIMURIUM, Strain/Indicator: TA1535, Metabolic Activation: NONE, Method: PREINCUBATION) was “inactive; negative” and the mutagenic call (Test System: AMES SALMONELLA TYPHIMURIUM, Strain/Indicator: TA1535, Metabolic Activation: RAT, LIVER, S-9, AROCLOR 1254 (10%), Method: PREINCUBATION) was “inactive; negative”.

In the case of `P`, the mutagenic call (Test System: AMES SALMONELLA TYPHIMURIUM, Strain/Indicator: TA98, Metabolic Activation: NONE, Method: GAS EXPOSURE) is reported as “inactive; negative”, the mutagenic call (Test System: AMES SALMONELLA TYPHIMURIUM, Strain/Indicator: TA98, Metabolic Activation: RAT LIVER S-9, PHENOBARBITAL AND BETA-NAPHTHOFLAVONE, Method: GAS EXPOSURE) is reported as “inactive; negative” and the mutagenic call (Test System: AMES SALMONELLA TYPHIMURIUM, Strain/Indicator: TA100, Metabolic Activation: NONE, Method: GAS EXPOSURE) is reported as “inactive; negative”. The mutagenic call (Test System: AMES SALMONELLA TYPHIMURIUM, Strain/Indicator: TA100, Metabolic Activation: RAT LIVER S-9, PHENOBARBITAL AND BETA-NAPHTHOFLAVONE, Method: GAS EXPOSURE) was “inactive; negative”, the mutagenic call (Test System: AMES SALMONELLA TYPHIMURIUM, Strain/Indicator: TA1535, Metabolic Activation: NONE, Method: GAS EXPOSURE) was “inactive; negative” and the mutagenic call (Test System: AMES SALMONELLA TYPHIMURIUM, Strain/Indicator: TA1535, Metabolic Activation: RAT LIVER S-9, PHENOBARBITAL AND BETA-NAPHTHOFLAVONE, Method: GAS EXPOSURE) was “inactive; negative”. The mutagenic call (Test System: AMES SALMONELLA TYPHIMURIUM, Strain/Indicator: TA1537, Metabolic Activation: NONE, Method: GAS EXPOSURE) was “inactive; negative”, the mutagenic call (Test System: AMES SALMONELLA TYPHIMURIUM, Strain/Indicator: TA1537, Metabolic Activation: RAT LIVER S-9, PHENOBARBITAL AND BETA-NAPHTHOFLAVONE, Method: GAS EXPOSURE) was “inactive; negative” and the mutagenic call (Test System: E.COLI, Strain/Indicator: WP2UVRA, Metabolic Activation: NONE, Method: GAS EXPOSURE) was “inactive; negative”. For the same molecule, the mutagenic call (Test System: E.COLI, Strain/Indicator: WP2UVRA, Metabolic Activation: RAT LIVER S-9, PHENOBARBITAL AND BETA-NAPHTHOFLAVONE, Method: GAS EXPOSURE) was “inactive; negative”.

In the case of `O=[N+]([O-])c1ccc2c(c1)Oc1cc(Cl)c(Cl)cc1O2`, the mutagenic call [2] is reported as “active; positive”, the mutagenic call (Test System: AMES SALMONELLA TYPHIMURIUM, Strain/Indicator: TA98, Metabolic Activation: RAT, LIVER, S-9, AROCLOR, Method: STANDARD PLATE) is reported as “active; positive” and the mutagenic call [1] is reported as “active; positive”. The mutagenic call (Test System: AMES SALMONELLA TYPHIMURIUM, Strain/Indicator: TA100, Metabolic Activation: RAT, LIVER, S-9, AROCLOR, Method: STANDARD PLATE) was “active; positive”.

In the case of `Cc1ccc2ccc3ccccc3c2c1C`, the mutagenic call [2] is reported as “inactive; negative”, the mutagenic call (Test System: AMES SALMONELLA TYPHIMURIUM, Strain/Indicator: TA98, Metabolic Activation: RAT, LIVER, S-9, AROCLOR 1254, Method: STANDARD PLATE) is reported as “inactive; negative” and the mutagenic call [1] is reported as “inactive; negative”. For the same molecule, the mutagenic call (Test System: AMES SALMONELLA TYPHIMURIUM, Strain/Indicator: TA100, Metabolic Activation: RAT, LIVER, S-9, AROCLOR 1254, Method: STANDARD PLATE) was “inactive; negative”.

For `Nc1ccc2c(=O)[nH]sc2c1`, the mutagenic call [2] was “inactive; negative”, the mutagenic call (Test System: AMES SALMONELLA TYPHIMURIUM, Strain/Indicator: TA98, Metabolic Activation: S-9, Method: STANDARD PLATE) was “inactive; negative” and the mutagenic call [1] was “inactive; negative”. The mutagenic call (Test System: AMES SALMONELLA TYPHIMURIUM, Strain/Indicator: TA100, Metabolic Activation: S-9, Method: STANDARD PLATE) was “inactive; negative”, the mutagenic call (Test System: AMES SALMONELLA TYPHIMURIUM, Strain/Indicator: TA1535, Metabolic Activation: NONE, Method: STANDARD PLATE) was “inactive; negative” and the mutagenic call (Test System: AMES SALMONELLA TYPHIMURIUM, Strain/Indicator: TA1535, Metabolic Activation: S-9, Method: STANDARD PLATE) was “inactive; negative”. The mutagenic call (Test System: AMES SALMONELLA TYPHIMURIUM, Strain/Indicator: TA1537, Metabolic Activation: NONE, Method: STANDARD PLATE) was “inactive; negative” and the mutagenic call (Test System: AMES SALMONELLA TYPHIMURIUM, Strain/Indicator: TA1537, Metabolic Activation: S-9, Method: STANDARD PLATE) was “inactive; negative”.
